Among the data in patent publication US9598381B2, “SMYD2 inhibitors” (AbbVie Inc., priority 2014, dated 2017) are IC50 values, retold here.

The experiment concerns the target SMYD2 (Homo sapiens (Human), UniProt Q9NRG4). Kind of experiment: SMYD2 TR-FRET inhibition assay (p53 peptide + SAM, SAH detection). It is filed as biochemical. The note with it: SMYD2 enzyme, p53 peptide and SAM substrates, overnight at room temperature; Tb chelate mAb/OG-SAH probe detection; read-out: TRFRET IC50. The procedure: 5 microliters of a 2×SMYD2 enzyme solution (20 nM, […] in assay buffer) were added to each well. To the control wells was also added 5 microliters of assay buffer. […] The wells were incubated at room temperature for 30 minutes.
Into the wells of the counter screen plate was added 5 microliters 2×SAH (300 nM, S-adenosyl homocysteine (SAH)), except the control wells.
Into all wells was added 5 microliters of 2×SAM. The plates were covered and incubated overnight at room temperature. […] Analysis of the wells was by the Laser Lentha Low Volume Envision Protocol (emission wavelength of 520 nm; laser excitation wavelength of 337 nm).

Sequence of SMYD2 (Q9NRG4 whole entry): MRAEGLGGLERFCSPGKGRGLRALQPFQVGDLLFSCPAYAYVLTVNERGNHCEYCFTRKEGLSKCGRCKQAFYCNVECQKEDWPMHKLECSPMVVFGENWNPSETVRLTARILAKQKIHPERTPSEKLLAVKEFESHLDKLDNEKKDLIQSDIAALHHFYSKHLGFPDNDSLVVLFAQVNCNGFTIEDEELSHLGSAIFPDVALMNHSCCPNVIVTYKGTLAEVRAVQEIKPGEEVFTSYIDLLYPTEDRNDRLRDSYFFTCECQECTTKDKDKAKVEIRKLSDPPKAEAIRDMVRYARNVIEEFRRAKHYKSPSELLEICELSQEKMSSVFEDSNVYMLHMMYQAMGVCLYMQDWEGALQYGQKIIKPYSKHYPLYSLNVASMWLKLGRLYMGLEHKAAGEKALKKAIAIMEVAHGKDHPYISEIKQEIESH

For `O=C1COc2c(cccc2C(O)CNCCN(C(=O)CCNCCc2ccc(Cl)c(Cl)c2)C2CCCCC2)N1` (racemic) [Example 1, N-cyclohexyl-3-((3,4-dichlorophenethyl)amino)-N-(2-((2-hydroxy-2-(3-oxo-3,4-dihydro-2H-benzo[b][1,4]oxazin-8-yl)ethyl)amino)ethyl)-propanamide], the half-maximal inhibitory concentration (IC50) stood at 0.065 µM.
With `O=C1COc2c(cccc2[C@H](O)CNCCN(C(=O)CCNCCc2ccc(Cl)c(Cl)c2)C2CCCCC2)N1` [Example 1a, (S)-N-cyclohexyl-3-((3,4-dichlorophenethyl)amino)-N-(2-((2-hydroxy-2-(3-oxo-3,4-dihydro-2H-benzo[b][1,4]oxazin-8-yl)ethyl)amino)-ethyl)-propanamide] the figure was 0.023 µM; with `O=C1COc2c(cccc2[C@@H](O)CNCCN(C(=O)CCNCCc2ccc(Cl)c(Cl)c2)C2CCCCC2)N1` [Example 1b, (R)-N-cyclohexyl-3-((3,4-dichlorophenethyl)amino)-N-(2-((2-hydroxy-2-(3-oxo-3,4-dihydro-2H-benzo[b][1,4]oxazin-8-yl)ethyl)amino)-ethyl)-propanamide], 0.138 µM.
With `O=C1COc2c(CCNCCN(C(=O)CCNCc3ccc(Cl)c(Cl)c3)C3CCCCC3)ccc(O)c2N1` [Example 2] the figure was 2.03 µM.
On to `O=C1COc2c(CCNCCN(C(=O)CCNCCc3ccccc3)C3CCCC3)ccc(O)c2N1` [Example 3, N-cyclopentyl-N-(2-((2-(5-hydroxy-3-oxo-3,4-dihydro-2H-benzo[b][1,4]oxazin-8-yl)ethyl)amino)ethyl)-3-(phenethylamino)-propanamide], for which the IC50 is 3.74 µM.
Turning to `O=C1COc2c(CCNCCN(C(=O)CCNCCc3ccc(Cl)c(Cl)c3)C3CCCC3)ccc(O)c2N1` [Example 4, N-cyclopentyl-3-((3,4-dichlorophenethyl)amino)-N-(2-((2-(5-hydroxy-3-oxo-3,4-dihydro-2H-benzo[b][1,4]oxazin-8-yl)ethyl)amino)-ethyl)-propanamide], the IC50 was 10 µM.
In the case of `O=C(CCNCCc1ccc(Cl)c(Cl)c1)N(CCNCCCN1CCCCC1)C1CCCCC1` [Example 5, N-cyclohexyl-3-((3,4-dichlorophenethyl)amino)-N-(2-((3-(piperidin-1-yl)propyl)amino)ethyl)propanamide] it was 11.2 µM; in that of `O=C(CCNCCc1ccc(Cl)c(Cl)c1)N(CCNCCN1CCCC1)C1CCCCC1` [Example 6, N-cyclohexyl-3-((3,4-dichlorophenethyl)amino)-N-(2-((2-(pyrrolidin-1-yl)ethyl)amino)ethyl)propanamide], 12.1 µM.
In the case of `CC(NCCc1ccc(Cl)c(Cl)c1)C(=O)N(CCNCc1ccc(C#N)cc1)C1CCCCC1` (stereo not drawn) [Example 7, N-(2-((4-cyanobenzyl)amino)ethyl)-N-cyclohexyl-((3,4-dichlorophenethyl)amino)propanamide] it was 16 µM.
With `CC1CNc2c(CC(C)(C)C)c(NCCN(C(=O)CCNCCc3ccc(Cl)c(Cl)c3)C3CCCCC3)nn2C1` (stereo not drawn) [Example 8, N-cyclohexyl-3-((3,4-dichlorophenethyl)amino)-N-(2-((6-methyl-3-neopentyl-4,5,6,7-tetrahydropyrazolo[1,5-a]pyrimidin-2-yl)-amino)ethyl)-propanamide] the figure was 32.8 µM.
For `O=C(CCNCCc1ccccc1)N(CCN1CC[C@H]1COc1cccnc1)C1CCCCC1` [Example 9, (S)-N-cyclohexyl-3-(phenethylamino)-N-(2-(2-((pyridin-3-yloxy)methyl)azetidin-1-yl)ethyl)propanamide], the IC50 is > 50 µM.
Take `COCCC(=O)N(CCNCCc1ccc(O)c2c1OCC(=O)N2)C1CCCCC1` [Example 10, N-cyclohexyl-N-(2-((2-(5-hydroxy-3-oxo-3,4-dihydro-2H-benzo[b][1,4]oxazin-8-yl)ethyl)amino)ethyl)-3-methoxypropanamide]: the half-inhibitory concentration (IC50) was > 50 µM.
With `O=C1COc2c(CCNCCN(C(=O)CCNCCc3ccccc3)C3CCCCC3)ccc(O)c2N1` [Example 11, N-cyclohexyl-N-(2-((2-(5-hydroxy-3-oxo-3,4-dihydro-2H-benzo[b][1,4]oxazin-8-yl)ethyl)amino)ethyl)-3-(phenethylamino)-propanamide] the figure was > 50 µM.
In the case of `O=C(CCNCCc1ccc(Cl)c(Cl)c1)N(CCN1CCN(c2cccc3c2CCN3)CC1)C1CCCCC1` [Example 12, N-cyclohexyl-3-((3,4-dichlorophenethyl)amino)-N-(2-(4-(indolin-4-yl)piperazin-1-yl)ethyl)propanamide] it was 9.83 µM; in that of `O=C(CCNCCc1ccc(Cl)c(Cl)c1)N(CCNCCCN1CCCC1)C1CCCCC1` [Example 13, N-cyclohexyl-3-((3,4-dichlorophenethyl)amino)-N-(2-((3-(pyrrolidin-1-yl)propyl)amino)ethyl)propanamide], 7.42 µM; in that of `O=C1COc2c(CCNCCN(C(=O)CCNCCc3ccccc3)C3CCC3)ccc(O)c2N1` [Example 14, N-cyclobutyl-N-(2-((2-(5-hydroxy-3-oxo-3,4-dihydro-2H-benzo[b][1,4]oxazin-8-yl)ethyl)amino)ethyl)-3-(phenethylamino)-propanamide], > 50 µM.
In the case of `O=C1COc2c(CCNCCN(C(=O)CCNCCc3ccc(Cl)c(Cl)c3)C3CCC3)ccc(O)c2N1` [Example 15, N-cyclobutyl-3-((3,4-dichlorophenethyl)amino)-N-(2-((2-(5-hydroxy-3-oxo-3,4-dihydro-2H-benzo[b][1,4]oxazin-8-yl)ethyl)amino)-ethyl)-propanamide] it was 3.79 µM.
Consider `Cc1cn2ccccc2c1CCNCCN(C(=O)CCNCCc1cccc(Cl)c1Cl)C1CCCCC1` [Example 16, N-cyclohexyl-3-((2,3-dichlorophenethyl)amino)-N-(2-((2-(2-methylindolizin-1-yl)ethyl)amino)ethyl)propanamide], for which the IC50 is 3.44 µM.

A word on the IC50: it is the concentration that gives 50% inhibition.
